From ChEMBL document CHEMBL1201862, “PubChem BioAssay data set” (2004)
Calls of active or inactive are those of the source.

Assays:
[1] = biological target: Voltage-gated inwardly rectifying potassium channel KCNH2 (Homo sapiens, UniProt Q12809); details: Potency;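 further: confirmatory quantitative high-throughput screen measuring inhibition of hERG channel activity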
[2] = MIN6 cell viability loss – mouse insulinoma, cytotoxicity control, dose response (AID 2122); format: functional;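 further: confirmatory high-throughput counterscreen run to flag cytotoxic compounds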
[3] = decrease of insulin promoter-GFP reporter – imaging, high-content screening, mouse beta cells (AID 1628); format: functional; details: MIN6
[4] = biological target: Glyceraldehyde-3-phosphate dehydrogenase (Homo sapiens, UniProt P04406)
Glyceraldehyde-3-phosphate dehydrogenase, sequence (P04406 whole entry): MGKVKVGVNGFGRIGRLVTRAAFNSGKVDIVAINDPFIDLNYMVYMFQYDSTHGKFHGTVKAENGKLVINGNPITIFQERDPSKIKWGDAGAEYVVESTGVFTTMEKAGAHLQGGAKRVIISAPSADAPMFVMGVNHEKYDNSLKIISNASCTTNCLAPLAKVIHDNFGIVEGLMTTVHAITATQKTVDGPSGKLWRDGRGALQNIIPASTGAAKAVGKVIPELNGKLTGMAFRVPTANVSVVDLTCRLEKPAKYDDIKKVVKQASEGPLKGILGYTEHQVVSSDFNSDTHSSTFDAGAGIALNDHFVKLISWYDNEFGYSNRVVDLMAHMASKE

[5] = biological target: T1, Alkaline phosphatase, tissue-nonspecific isozyme (Homo sapiens, UniProt P05186); assay: potency against alkaline phosphatase TNAP – biochemical, luminescent, dose response, SAR follow-up (AID 1056)
T1 sequence (P05186 whole entry): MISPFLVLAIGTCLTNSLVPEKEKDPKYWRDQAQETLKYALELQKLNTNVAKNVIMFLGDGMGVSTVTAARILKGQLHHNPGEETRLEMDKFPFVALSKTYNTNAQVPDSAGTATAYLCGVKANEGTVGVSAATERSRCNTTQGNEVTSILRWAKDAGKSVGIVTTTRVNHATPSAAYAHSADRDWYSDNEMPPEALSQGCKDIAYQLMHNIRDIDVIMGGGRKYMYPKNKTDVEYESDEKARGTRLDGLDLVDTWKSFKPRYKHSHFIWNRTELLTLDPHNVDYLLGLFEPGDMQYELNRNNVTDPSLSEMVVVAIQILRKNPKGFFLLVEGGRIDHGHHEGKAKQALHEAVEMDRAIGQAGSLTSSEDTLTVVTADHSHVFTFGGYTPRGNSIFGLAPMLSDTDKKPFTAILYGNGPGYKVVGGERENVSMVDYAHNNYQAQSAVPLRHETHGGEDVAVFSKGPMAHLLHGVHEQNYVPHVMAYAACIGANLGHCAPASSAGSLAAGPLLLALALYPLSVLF

Vero [6] = assay: cells; format: functional, cell-based; details: Chlorocebus sabaeus
Vero [7] = assay: cells; format: functional; details: Chlorocebus sabaeus
[8] = biological target: DNA dC->dU-editing enzyme APOBEC-3A (Homo sapiens, UniProt P31941); assay: Dose Response confirmation of small molecule APOBEC3A DNA Deaminase Inhibitors via a fluorescence-based single-stranded DNA deaminase assay. [Related pubchem assays (depositor defined):AID493011, AID493024]; format: functional
DNA dC->dU-editing enzyme APOBEC-3A, sequence (P31941 whole entry): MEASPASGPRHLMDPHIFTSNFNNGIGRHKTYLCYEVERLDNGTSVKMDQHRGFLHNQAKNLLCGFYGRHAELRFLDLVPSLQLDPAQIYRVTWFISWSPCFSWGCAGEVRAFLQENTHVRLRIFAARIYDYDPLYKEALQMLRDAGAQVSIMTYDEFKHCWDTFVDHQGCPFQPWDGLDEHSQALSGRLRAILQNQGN

[9] = biological target: DNA dC->dU-editing enzyme APOBEC-3G (Homo sapiens, UniProt Q9HC16); format: functional;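 further: Dose-response counterscreen measuring inhibition of APOBEC3G DNA deaminase activity, run while confirming APOBEC3A inhibitors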
DNA dC->dU-editing enzyme APOBEC-3G, sequence (Q9HC16 whole entry): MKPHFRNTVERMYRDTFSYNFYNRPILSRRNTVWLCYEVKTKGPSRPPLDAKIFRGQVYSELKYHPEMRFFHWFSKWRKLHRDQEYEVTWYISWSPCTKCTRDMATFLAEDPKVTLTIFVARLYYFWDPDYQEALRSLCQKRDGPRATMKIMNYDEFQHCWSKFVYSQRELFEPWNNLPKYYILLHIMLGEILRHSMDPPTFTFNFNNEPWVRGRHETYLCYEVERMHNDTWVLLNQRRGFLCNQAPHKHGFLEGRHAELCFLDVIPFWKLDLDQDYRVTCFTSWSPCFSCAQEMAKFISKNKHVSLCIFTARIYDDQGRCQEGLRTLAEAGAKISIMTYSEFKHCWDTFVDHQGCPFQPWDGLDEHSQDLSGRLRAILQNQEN

Cytochrome P450 2C9 [10] = biological target: T2, Cytochrome P450 2C9 (Homo sapiens, UniProt P11712)
T2 sequence (P11712 whole entry): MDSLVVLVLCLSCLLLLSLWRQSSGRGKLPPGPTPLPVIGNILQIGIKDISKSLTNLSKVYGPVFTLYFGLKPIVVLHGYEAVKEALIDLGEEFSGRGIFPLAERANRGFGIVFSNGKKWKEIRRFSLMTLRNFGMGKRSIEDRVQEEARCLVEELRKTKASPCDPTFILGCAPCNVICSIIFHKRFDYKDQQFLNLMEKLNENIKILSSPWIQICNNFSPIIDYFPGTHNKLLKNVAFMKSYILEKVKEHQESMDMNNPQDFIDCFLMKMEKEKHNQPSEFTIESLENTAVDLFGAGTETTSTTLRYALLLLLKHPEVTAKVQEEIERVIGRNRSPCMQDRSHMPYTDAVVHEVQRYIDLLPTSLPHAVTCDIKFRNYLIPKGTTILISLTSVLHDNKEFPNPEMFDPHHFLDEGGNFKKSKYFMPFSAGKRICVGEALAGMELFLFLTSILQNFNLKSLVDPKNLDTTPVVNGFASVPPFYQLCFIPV

Cytochrome P450 2C19 = Cytochrome P450 2C19 (Homo sapiens, UniProt P33261); assay: Cytochrome panel assay with activity outcomes. Panel member name: p450-cyp2c19 Compounds with AC50 equal or less than 10 uM are considered active; format: functional
Cytochrome P450 2C19, sequence (P33261 whole entry): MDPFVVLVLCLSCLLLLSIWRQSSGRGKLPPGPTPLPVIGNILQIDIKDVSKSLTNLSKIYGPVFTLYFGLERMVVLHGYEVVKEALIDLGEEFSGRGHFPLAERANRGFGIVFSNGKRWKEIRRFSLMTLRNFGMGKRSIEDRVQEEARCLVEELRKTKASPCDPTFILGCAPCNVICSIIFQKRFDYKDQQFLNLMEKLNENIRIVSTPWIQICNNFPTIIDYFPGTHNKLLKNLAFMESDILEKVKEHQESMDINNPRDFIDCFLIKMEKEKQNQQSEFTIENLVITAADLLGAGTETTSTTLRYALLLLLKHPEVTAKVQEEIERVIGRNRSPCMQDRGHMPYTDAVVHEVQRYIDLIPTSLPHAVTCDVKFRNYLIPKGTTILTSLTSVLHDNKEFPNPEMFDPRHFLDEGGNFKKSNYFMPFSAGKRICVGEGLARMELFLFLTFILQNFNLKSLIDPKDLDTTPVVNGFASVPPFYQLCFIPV

[11] = biological target: Eukaryotic translation initiation factor 4E (Mus musculus, UniProt P63073); assay: blockers of eIF4G binding by eIF4E – biochemical, TR-FRET, dose response (AID 855); format: functional;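 further: potency for disrupting eIF4E binding to eIF4GI seen as loss of FRET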
Eukaryotic translation initiation factor 4E, sequence (P63073 whole entry): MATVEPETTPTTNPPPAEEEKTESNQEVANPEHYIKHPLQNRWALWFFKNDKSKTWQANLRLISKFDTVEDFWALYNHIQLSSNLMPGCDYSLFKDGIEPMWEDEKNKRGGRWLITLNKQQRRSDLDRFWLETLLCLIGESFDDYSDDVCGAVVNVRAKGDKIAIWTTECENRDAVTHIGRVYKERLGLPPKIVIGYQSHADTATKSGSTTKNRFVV

[12] = restored growth of temperature-sensitive Burl-1 yeast – whole organism, S. cerevisiae, Burl-1 ts mutant, luminescence, counter-screen for SUMOylation pathway inhibitor project, dose response (AID 463199); format: functional
[13] = non-specific 3'UTR reporter inhibition in Clone20-Shn3RL – cell-based, Renilla luciferase, cherry-picked, counter-screen for Shn3 inhibitor project, dose response (AID 624133); format: functional
[14] = Trypanosoma cruzi growth suppression in host cells – NIH3T3 host cells, beta-gal luminescence, confirmation (AID 2044); format: functional, cell-based;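 further: intracellular parasites grown in NIH/3T3 mouse fibroblasts as host cells; luminescent beta-galactosidase reporter signal from transgenic T. cruzi replicating inside host cells; inhibitors lower the luminescence signal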
[15] = loss of viability in HepG2 cells – cell-based, CellTiter-Glo, cherry-picked, cytotoxicity control for Shn3 inhibitor project, dose response (AID 624134); format: functional
[16] = reduction of Shn3 3'UTR-driven luciferase in osteoblasts – cell-based, Clone20 osteoblasts, firefly luciferase, cherry-picked, dose response (AID 624132); format: functional;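 further: firefly luciferase luminescence from reporter carrying the Shn3 3'UTR in osteoblasts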
[17] = NIH3T3 cell viability loss – ATP luminescence, mouse fibroblasts, counter-screen, dose response (AID 2010); format: functional, cell-based;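 further: cells exposed to compound for about 90 hours before reading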
[18] = biological target: T3, Short transient receptor potential channel 4 (Mus musculus, UniProt Q9QUQ5); assay: calcium entry via TRPC4 opening agents – cell-based, HEK293 TRPC4/mu-opioid, Fluo-4 calcium, dose response (AID 434937); format: functional
T3 sequence (Q9QUQ5 whole entry): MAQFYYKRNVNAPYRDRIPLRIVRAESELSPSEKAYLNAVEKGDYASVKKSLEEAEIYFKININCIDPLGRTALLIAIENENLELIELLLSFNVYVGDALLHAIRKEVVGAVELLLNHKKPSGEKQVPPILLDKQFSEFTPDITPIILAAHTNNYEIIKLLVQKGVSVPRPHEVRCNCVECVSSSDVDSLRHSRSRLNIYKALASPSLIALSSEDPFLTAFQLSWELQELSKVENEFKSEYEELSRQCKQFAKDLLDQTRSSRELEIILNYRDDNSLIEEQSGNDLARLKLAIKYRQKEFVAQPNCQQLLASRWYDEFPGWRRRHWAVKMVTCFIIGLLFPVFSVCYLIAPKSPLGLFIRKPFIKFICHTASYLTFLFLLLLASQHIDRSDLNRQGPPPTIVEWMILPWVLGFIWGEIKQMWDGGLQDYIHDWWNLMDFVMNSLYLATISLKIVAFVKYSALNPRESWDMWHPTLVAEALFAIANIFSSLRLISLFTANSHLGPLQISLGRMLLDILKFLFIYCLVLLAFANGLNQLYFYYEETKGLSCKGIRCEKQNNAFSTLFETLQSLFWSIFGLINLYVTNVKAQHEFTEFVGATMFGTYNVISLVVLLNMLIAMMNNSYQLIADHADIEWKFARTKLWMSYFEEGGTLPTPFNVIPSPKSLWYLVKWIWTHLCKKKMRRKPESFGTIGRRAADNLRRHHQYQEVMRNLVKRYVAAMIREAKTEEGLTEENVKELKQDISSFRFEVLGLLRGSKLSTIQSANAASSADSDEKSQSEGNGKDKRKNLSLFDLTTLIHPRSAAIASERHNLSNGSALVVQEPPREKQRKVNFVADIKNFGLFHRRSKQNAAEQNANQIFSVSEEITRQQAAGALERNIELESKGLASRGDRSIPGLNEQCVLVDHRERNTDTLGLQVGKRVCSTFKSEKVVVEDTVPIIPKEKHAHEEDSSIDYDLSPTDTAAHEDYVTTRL

[19] = HEK-293T viability loss after treatment – luminescence, T-cell screen hits, cytotoxicity control for TCR NF-kB inhibitor project, dose response (AID 489026); format: functional, cell-based;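 further: cells exposed to compound about 14 hours before the viability readout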
INS1 = assay: INS-1E survival protection against cytokine death – cell-based, luminescence, retest, dose response (AID 449756); format: functional; details: Rattus norvegicus;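 further: cell death triggered by IL-1 beta plus TNF-alpha plus IFN-gamma mixture; protective hits raise ATP signal compared with cytokine alone wells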
CAAX prenyl protease 2 = biological target: T4, CAAX prenyl protease 2 (Homo sapiens, UniProt Q9Y256); assay: inhibition of Ras-converting CAAX protease Rce1 – biochemical, yeast membranes, quenched-peptide fluorescence, cherry-pick, dose response (AID 588849)
T4 sequence (Q9Y256 whole entry): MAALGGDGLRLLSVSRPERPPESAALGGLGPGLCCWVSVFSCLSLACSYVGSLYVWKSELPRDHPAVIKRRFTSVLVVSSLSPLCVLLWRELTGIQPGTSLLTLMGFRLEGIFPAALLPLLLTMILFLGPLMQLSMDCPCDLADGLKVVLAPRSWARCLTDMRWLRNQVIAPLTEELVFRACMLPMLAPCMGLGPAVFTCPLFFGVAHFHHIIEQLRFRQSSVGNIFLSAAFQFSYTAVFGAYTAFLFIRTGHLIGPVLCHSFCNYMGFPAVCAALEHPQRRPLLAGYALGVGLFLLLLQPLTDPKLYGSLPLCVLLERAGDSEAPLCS

[20] = biological target: T5, Corticotropin-releasing factor receptor 2/Corticotropin-releasing factor-binding protein (Homo sapiens, UniProt P24387+Q13324); assay: activators of CRF receptor 2 with binding protein – uHTS hits, confirmation (AID 602473); format: functional; details: read-out: EC50_Mean
T5 sequence (Q13324 whole entry): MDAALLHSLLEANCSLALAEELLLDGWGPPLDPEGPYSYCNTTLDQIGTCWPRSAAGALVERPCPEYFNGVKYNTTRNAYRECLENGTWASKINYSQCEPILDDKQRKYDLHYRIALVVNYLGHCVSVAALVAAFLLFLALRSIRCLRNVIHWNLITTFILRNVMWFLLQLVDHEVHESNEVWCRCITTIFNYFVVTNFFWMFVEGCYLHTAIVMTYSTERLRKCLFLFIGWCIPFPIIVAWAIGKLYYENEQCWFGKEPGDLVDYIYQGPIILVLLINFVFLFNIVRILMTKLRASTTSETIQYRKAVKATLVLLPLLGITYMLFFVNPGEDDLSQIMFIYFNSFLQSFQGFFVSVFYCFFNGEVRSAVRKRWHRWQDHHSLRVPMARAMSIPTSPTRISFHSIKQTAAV
T5 sequence (P24387 whole entry): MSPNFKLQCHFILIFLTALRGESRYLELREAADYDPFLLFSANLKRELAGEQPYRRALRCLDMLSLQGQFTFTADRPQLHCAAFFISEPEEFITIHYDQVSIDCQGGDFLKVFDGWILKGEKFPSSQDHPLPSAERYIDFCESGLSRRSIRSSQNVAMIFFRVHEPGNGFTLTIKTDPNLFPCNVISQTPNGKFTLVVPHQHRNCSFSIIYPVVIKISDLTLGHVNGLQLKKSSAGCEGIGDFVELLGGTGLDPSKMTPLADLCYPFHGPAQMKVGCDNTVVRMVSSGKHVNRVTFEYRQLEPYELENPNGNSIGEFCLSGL

[21] = biological target: T5, Corticotropin-releasing factor receptor 2/Corticotropin-releasing factor-binding protein; assay: Dose Response confirmation of uHTS hits for small molecule antagonists of the CRF-binding protein and CRF-R2 receptor complex.; format: functional; details: read-out: IC50_Mean
Cytochrome P450 3A4 = Cytochrome P450 3A4 (Homo sapiens, UniProt P08684);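 further: CYP3A4 tested as one member of a cytochrome P450 panel screen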
Cytochrome P450 3A4, sequence (P08684 whole entry): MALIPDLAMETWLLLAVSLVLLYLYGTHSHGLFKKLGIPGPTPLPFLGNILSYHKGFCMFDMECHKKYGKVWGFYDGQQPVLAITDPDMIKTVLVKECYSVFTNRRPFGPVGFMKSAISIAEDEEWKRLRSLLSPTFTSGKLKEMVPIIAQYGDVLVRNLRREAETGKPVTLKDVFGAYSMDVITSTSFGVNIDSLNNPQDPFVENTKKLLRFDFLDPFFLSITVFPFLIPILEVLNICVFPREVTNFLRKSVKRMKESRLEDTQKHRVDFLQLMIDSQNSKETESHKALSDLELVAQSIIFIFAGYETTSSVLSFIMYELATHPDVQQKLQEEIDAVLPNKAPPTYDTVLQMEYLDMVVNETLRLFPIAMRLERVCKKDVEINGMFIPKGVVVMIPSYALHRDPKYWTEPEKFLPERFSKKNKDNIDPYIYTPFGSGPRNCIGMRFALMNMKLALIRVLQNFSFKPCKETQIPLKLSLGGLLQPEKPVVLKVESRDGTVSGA

Cytochrome P450 2C9 [22] = biological target: T2, Cytochrome P450 2C9; remark: listed apart in the source
[23] = biological target: T6, Carboxy-terminal domain RNA polymerase II polypeptide A small phosphatase 1 (Homo sapiens, UniProt Q9GZU7); assay: CTDSP1 inhibitors, concentration-response, biochemical, absorbance readout, ultra-high-throughput screen actives (AID 540297); format: functional
T6 sequence (Q9GZU7 whole entry): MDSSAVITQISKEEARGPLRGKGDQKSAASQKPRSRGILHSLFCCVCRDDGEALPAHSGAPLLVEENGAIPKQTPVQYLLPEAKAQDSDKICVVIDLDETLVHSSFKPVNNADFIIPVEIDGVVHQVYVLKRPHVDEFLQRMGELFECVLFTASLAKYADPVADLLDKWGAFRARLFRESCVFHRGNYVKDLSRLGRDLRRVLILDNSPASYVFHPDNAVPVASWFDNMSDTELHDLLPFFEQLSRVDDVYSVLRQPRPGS

Voltage-gated inwardly rectifying potassium channel KCNH2, sequence (Q12809 whole entry): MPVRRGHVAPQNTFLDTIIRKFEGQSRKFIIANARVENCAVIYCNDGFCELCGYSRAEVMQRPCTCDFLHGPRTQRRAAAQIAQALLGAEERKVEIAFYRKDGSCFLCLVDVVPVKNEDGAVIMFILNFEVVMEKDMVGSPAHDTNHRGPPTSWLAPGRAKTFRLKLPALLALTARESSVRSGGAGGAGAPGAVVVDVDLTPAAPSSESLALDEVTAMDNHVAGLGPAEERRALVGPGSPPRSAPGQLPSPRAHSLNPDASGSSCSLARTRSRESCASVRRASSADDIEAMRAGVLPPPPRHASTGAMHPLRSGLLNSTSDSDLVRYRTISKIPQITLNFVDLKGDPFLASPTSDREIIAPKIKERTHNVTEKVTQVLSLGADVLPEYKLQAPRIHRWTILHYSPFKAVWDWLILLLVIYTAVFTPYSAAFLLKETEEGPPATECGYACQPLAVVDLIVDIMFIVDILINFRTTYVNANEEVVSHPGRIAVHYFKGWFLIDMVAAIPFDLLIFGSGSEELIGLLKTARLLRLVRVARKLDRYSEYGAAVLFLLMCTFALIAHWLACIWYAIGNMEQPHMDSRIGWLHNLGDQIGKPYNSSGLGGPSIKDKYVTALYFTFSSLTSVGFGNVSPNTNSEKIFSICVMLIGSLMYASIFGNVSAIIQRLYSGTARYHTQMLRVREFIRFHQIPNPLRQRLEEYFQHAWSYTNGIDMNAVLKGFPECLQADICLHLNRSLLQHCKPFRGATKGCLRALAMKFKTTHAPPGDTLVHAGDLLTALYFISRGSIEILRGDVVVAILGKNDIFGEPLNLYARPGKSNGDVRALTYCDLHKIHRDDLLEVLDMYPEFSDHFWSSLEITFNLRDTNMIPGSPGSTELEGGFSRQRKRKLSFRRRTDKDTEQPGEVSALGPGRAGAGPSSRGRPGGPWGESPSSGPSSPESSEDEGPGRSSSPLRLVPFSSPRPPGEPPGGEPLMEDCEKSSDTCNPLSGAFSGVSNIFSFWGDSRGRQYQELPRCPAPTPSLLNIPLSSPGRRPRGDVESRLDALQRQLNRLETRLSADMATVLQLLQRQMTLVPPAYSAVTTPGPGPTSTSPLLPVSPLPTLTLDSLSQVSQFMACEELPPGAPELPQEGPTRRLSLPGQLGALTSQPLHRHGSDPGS

CC(COc1ccc(/C=C/c2ccccc2)cc1)[N+](C)(C)C (stereo not given)
AC50 [1]: 22.4 µM (inconclusive)

Cc1ccc(-n2c(SCC(=O)NCC3CCCO3)nc3nnc(C)c-3c2N)cc1Cl (stereo not given)
IC50 [2]: 4.6 µM (active)
IC50 [3]: 2.21 µM (active)

O=C1[C@H]2CC=CC[C@H]2C(=O)N1c1nnc(Cc2ccc(F)cc2)[nH]1
IC50 [4]: > 100 µM (not active)
IC50 [5]: 4.2 µM (active)

CCc1c(C)sc(NC(=O)C2CC2c2ccccc2)c1C(N)=O (stereo not given)
IC50 (Vero [6]): 3.57 µM (active)
CC50 (Vero [7]): > 25 µM (active)

C[n+]1ccccc1/C=C/c1ccccc1Cl
IC50 [8]: 2.25 µM (active)
IC50 [9]: 2.41 µM (active)

Cc1ccc(Cn2cnc3ccccc32)cc1
IC50 [2]: 4.02 µM (active)
IC50 [3]: 4.89 µM (active)

COc1ccc(CN2CCN(C(=O)CC(C)C)CC2)c(OC)c1OC
AC50 (Cytochrome P450 2C9 [10]): inconclusive
AC50 (Cytochrome P450 2C19): 25.1 µM (inconclusive)
IC50 [11]: > 64 µM (inactive)

CC(=O)c1cccc(CN2CCCC(N3CCN(c4ccccc4F)CC3)C2)c1 (stereo not given)
AC50 [12]: 49.9 µM (active)

Cc1sc2ncnc(NC3CCN(Cc4ccccc4)CC3)c2c1C
AC50 [13]: 2.61 µM (active)
EC50 [14]: 1.78 µM (active)
IC50 [2]: 0.316 µM (active)
AC50 [15]: 3.41 µM (active)
AC50 [16]: 1.02 µM (active)
EC50 [17]: > 60 µM (not active)
EC50 [18]: 0.0467 µM (active)
IC50 [19]: > 80 µM (inactive)
IC50 [3]: 0.411 µM (active)
AC50 (INS1): 2.88 µM (active)

CC(C)C[C@H](N)CSSC[C@@H](N)CC(C)C
AC50 [1]: 35.5 µM (inconclusive)

OC(COc1ccc(CNCCc2ccc(C(F)(F)F)cc2)cc1)CN1CCCCC1 (stereo not given)
IC50 (Vero [6]): 8.76 µM (active)
CC50 (Vero [7]): 16.4 µM (active)
EC50 [14]: 1.26 µM (active)
EC50 [17]: 5.08 µM (active)

CS(=O)(=O)Nc1ccccc1C(=O)NCc1ccccc1Cl
AC50 (CAAX prenyl protease 2): 12.8 µM (active)
EC50 [20]: > 53 µM (inactive)
IC50 [21]: > 47.1 µM (inactive)

COc1ccc(N2CC(C(=O)NCc3ccco3)CC2=O)cc1 (stereo not given)
IC50 [8]: 39.6 µM (active)
IC50 [9]: 21.2 µM (active)

CC(=O)N1CCN(c2ccc(NC(=O)c3ccc(C)cc3)cc2)CC1
AC50 (Cytochrome P450 2C19): 15.8 µM (inconclusive)
AC50 (Cytochrome P450 3A4): inconclusive
AC50 (Cytochrome P450 2C9 [22]): 39.8 µM (inconclusive)

Cc1cc(C(=O)NCc2ccc(C(=O)O)o2)c(C)o1
IC50 [8]: 31 µM (active)
IC50 [9]: 45.9 µM (active)
IC50 [23]: 4.04 µM (active)

Cc1csc2nc(=O)c3ccccc3n12
AC50 (CAAX prenyl protease 2): 63 µM (active)

CC1CCN(C(=O)Cn2cnc3c2c(=O)n(C)c(=O)n3C)c2ccccc2S1 (stereo not given)
AC50 [12]: 87.7 µM (active)

O=C1C(Cl)=C(Cl)C(=O)N1c1nnc(Cc2ccccc2)[nH]1
IC50 [4]: > 100 µM (not active)
IC50 [5]: 3.24 µM (active)
